Data published in US10015966B2, “Fungicidal pyrazole mixtures” (E I DU PONT DE NEMOURS AND COMPANY, priority 2012, dated 2018).

Key:
Format in all cases: in vivo
Septoria nodorum = test: Test E: preventive spray on wheat seedlings, Septoria glume blotch, visual disease rating; conditions: 200 ppm test suspension, preventive spray
Protocol: General protocol for preparing test suspensions for Tests A-I: the test compounds were first dissolved in acetone in an amount equal to 3% of the final volume and then suspended at the desired concentration (in ppm) in acetone and purified water (50/50 mix by volume) containing 250 ppm of the surfactant Trem® 014 (polyhydric alcohol esters). The resulting test suspensions were then used in Tests A-I. Each test was conducted in triplicate, and the results were averaged. Spraying a 200 ppm test suspension to the point of run-off on the test plants was the equivalent of a rate of about 800 g/ha. Unless otherwise indicated, the rating values indicate a 200 ppm test suspension was used. (An asterisk “*” next to the rating value indicates a 40 ppm test suspension was used.) The test suspension was sprayed to the point of run-off on wheat seedlings. The following day the seedlings were inoculated with a spore suspension of Septoria nodorum (the causal agent of Septoria glume blotch) and incubated in a saturated atmosphere at 24° C. for 48 h, and then moved to a growth chamber at 20° C. for 9 days, after which time visual disease ratings were made. Results for Tests A-I are given in Table A. In the Table, a rating of 100 indicates 100% disease control and a rating of 0 indicates no disease control (relative to the controls). A hyphen (-) indicates no test results.

Botrytis cinerea = test: Test A: preventive spray on tomato seedlings, tomato Botrytis, visual disease rating; conditions: 200 ppm test suspension
Protocol: General protocol for preparing test suspensions for Tests A-I: the test compounds were first dissolved in acetone in an amount equal to 3% of the final volume and then suspended at the desired concentration (in ppm) in acetone and purified water (50/50 mix by volume) containing 250 ppm of the surfactant Trem® 014 (polyhydric alcohol esters). The resulting test suspensions were then used in Tests A-I. Each test was conducted in triplicate, and the results were averaged. Spraying a 200 ppm test suspension to the point of run-off on the test plants was the equivalent of a rate of about 800 g/ha. Unless otherwise indicated, the rating values indicate a 200 ppm test suspension was used. (An asterisk “*” next to the rating value indicates a 40 ppm test suspension was used.) The test suspension was sprayed to the point of run-off on tomato seedlings. The following day the seedlings were inoculated with a spore suspension of Botrytis cinerea (the causal agent of tomato Botrytis) and incubated in saturated atmosphere at 20° C. for 48 h, and then moved to a growth chamber at 24° C. for 3 additional days, after which time visual disease ratings were made. Results for Tests A-I are given in Table A. In the Table, a rating of 100 indicates 100% disease control and a rating of 0 indicates no disease control (relative to the controls). A hyphen (-) indicates no test results.

[1] = test system: Puccinia recondita f. sp. tritici; test: Test H: preventive spray on wheat seedlings, wheat leaf rust, visual disease rating; conditions: 200 ppm test suspension
Protocol: General protocol for preparing test suspensions for Tests A-I: the test compounds were first dissolved in acetone in an amount equal to 3% of the final volume and then suspended at the desired concentration (in ppm) in acetone and purified water (50/50 mix by volume) containing 250 ppm of the surfactant Trem® 014 (polyhydric alcohol esters). The resulting test suspensions were then used in Tests A-I. Each test was conducted in triplicate, and the results were averaged. Spraying a 200 ppm test suspension to the point of run-off on the test plants was the equivalent of a rate of about 800 g/ha. Unless otherwise indicated, the rating values indicate a 200 ppm test suspension was used. (An asterisk “*” next to the rating value indicates a 40 ppm test suspension was used.) The test suspension was sprayed to the point of run-off on wheat seedlings. The following day the seedlings were inoculated with a spore suspension of Puccinia recondita f. sp. tritici (the causal agent of wheat leaf rust) and incubated in a saturated atmosphere at 20° C. for 24 h, and then moved to a growth chamber at 20° C. for 6 days, after which time visual disease ratings were made. Results for Tests A-I are given in Table A. In the Table, a rating of 100 indicates 100% disease control and a rating of 0 indicates no disease control (relative to the controls). A hyphen (-) indicates no test results.

Septoria tritici = test: Test F: preventive spray on wheat seedlings, wheat leaf blotch, visual disease rating; conditions: Zymoseptoria tritici, 200 ppm test suspension
Protocol: General protocol for preparing test suspensions for Tests A-I: the test compounds were first dissolved in acetone in an amount equal to 3% of the final volume and then suspended at the desired concentration (in ppm) in acetone and purified water (50/50 mix by volume) containing 250 ppm of the surfactant Trem® 014 (polyhydric alcohol esters). The resulting test suspensions were then used in Tests A-I. Each test was conducted in triplicate, and the results were averaged. Spraying a 200 ppm test suspension to the point of run-off on the test plants was the equivalent of a rate of about 800 g/ha. Unless otherwise indicated, the rating values indicate a 200 ppm test suspension was used. (An asterisk “*” next to the rating value indicates a 40 ppm test suspension was used.) The test suspension was sprayed to the point of run-off on wheat seedlings. The following day the seedlings were inoculated with a spore suspension of Septoria tritici (the causal agent of wheat leaf blotch) and incubated in saturated atmosphere at 24° C. for 48 h. and then the seedlings were moved to a growth chamber at 20° C. for 19 additional days, after which time visual disease ratings were made. Results for Tests A-I are given in Table A. In the Table, a rating of 100 indicates 100% disease control and a rating of 0 indicates no disease control (relative to the controls). A hyphen (-) indicates no test results.

[2] = test system: Blumeria graminis f. sp. tritici; test: Test I: preventive spray on wheat seedlings, wheat powdery mildew, visual disease rating; conditions: 192 h, 200 ppm test suspension
Protocol: General protocol for preparing test suspensions for Tests A-I: the test compounds were first dissolved in acetone in an amount equal to 3% of the final volume and then suspended at the desired concentration (in ppm) in acetone and purified water (50/50 mix by volume) containing 250 ppm of the surfactant Trem® 014 (polyhydric alcohol esters). The resulting test suspensions were then used in Tests A-I. Each test was conducted in triplicate, and the results were averaged. Spraying a 200 ppm test suspension to the point of run-off on the test plants was the equivalent of a rate of about 800 g/ha. Unless otherwise indicated, the rating values indicate a 200 ppm test suspension was used. (An asterisk “*” next to the rating value indicates a 40 ppm test suspension was used.) The test suspension was sprayed to the point of run-off on wheat seedlings. The following day the seedlings were inoculated with a spore dust of Blumeria graminis f. sp. tritici (also known as Erysiphe graminis f. sp. tritici, the causal agent of wheat powdery mildew) and incubated in a growth chamber at 20° C. for 8 days, after which time visual disease ratings were made. Results for Tests A-I are given in Table A. In the Table, a rating of 100 indicates 100% disease control and a rating of 0 indicates no disease control (relative to the controls). A hyphen (-) indicates no test results.

Row | SMILES | Test E rating (% disease control) (Septoria nodorum) | pest or weed control at 200 ppm (Botrytis cinerea) | pest or weed control at 200 ppm [1] | pest or weed control at 200 ppm (Septoria tritici) | pest or weed control at 200 ppm [2]
1 | Cc1nn(C)c(Nc2c(F)cccc2F)c1-c1ccc(F)cc1Cl [Compound 2, 4-(2-chloro-4-fluorophenyl)-N-(2,6-difluorophenyl)-1,3-dimethyl-1H-pyrazol-5-amine] | 87% | 100% | 99% | 100% | 100%
2 | Cc1nn(C)c(Nc2ccccc2F)c1-c1ccc(F)cc1Cl [Compound 1, 4-(2-chloro-4-fluorophenyl)-N-(2-fluorophenyl)-1,3-dimethyl-1H-pyrazol-5-amine] | 0% | 99% | 99% | 100% | 100%
3 | Cc1nn(C)c(Nc2c(F)cccc2Cl)c1-c1ccc(F)cc1Cl [Compound 3, 4-(2-chloro-4-fluorophenyl)-N-(2-chloro-6-fluorophenyl)-1,3-dimethyl-1H-pyrazol-5-amine] | 99% | 100% | 100% | 100% | 99%
